The text below walks through data of US20050101595A1, “N-containing cycloalkyl-substituted amino-thiazole derivatives and pharmaceutical compositions for inhibiting cell proliferation and methods for their use” (PFIZER INC., priority 2003, published 2005).

Structures can show the parent of a compound that is named as a salt.

Usually inhibition stands for how much of the control response was suppressed. Usually IC50 stands for the concentration that gives 50% inhibition.

One test relates to HCT-116 cell line. The test can be described thus: Inhibition of cell growth, tetrazolium salt (MTT) assay. Format: cell-based. The settings on record: MTT; for inhibition at 0.175 µM / IC50: Homo sapiens; for inhibition at 0.175 µM: HCT-116, HCT-116 cells; for IC50: HCT-116, 120 h, first HCT-116 column (c4), three to five days, read-out: HCT-116 IC50. The gist of the method:
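MTT colorimetric viability: three-to-five-day compound exposure in 0.5% (v/v) DMSO at 37° C, MTT 0.2 mg/mL for the last 4 h, A540 compared with vehicle-treated cells.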

The target in another test is CDK2/Cyclin A (Homo sapiens, UniProt P24941). The test is described as follows: Inhibition of CDK2/Cyclin A Retinoblastoma Kinase Activity. The note with it: for inhibition at 0.05 µM: read-out: % inhibition of CDK2 (@ 0.05 μM), compound at 0.05 μM; for Ki: apparent Ki, CDK2/proteolyzed cyclin A, Rb fragment substrate, 25 μM ATP. Format: biochemical. In a few lines:
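Radiometric filter-binding readout of phosphate transfer to an Rb substrate fragment by purified CDK2/truncated cyclin A at 10 or 19 nM. Run at pH 7.4 with 25 μM ATP, 30 °C, 60–75 min, linear rates; background without enzyme subtracted, Ki from competitive-inhibition models.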

Take `NC(=O)[C@@H]1CCCN1CCCS(=O)(=O)N1CCC(Nc2nc(N)c(C(=O)c3c(F)cccc3F)s2)CC1` [Example V87]: the inhibition at 0.175 µM in the test on HCT-116 cell line (compound at 0.175 uM) turned out to be 3%. The inhibition at 0.05 µM at CDK2/Cyclin A turned out to be 80%.
The like results for `Cc1nnc(CCNCCCS(=O)(=O)N2CCC(Nc3nc(N)c(C(=O)c4c(F)cccc4F)s3)CC2)o1` [Example V175] were, in that order, 5% and 78%.
The like results for `Nc1nc(NC2CCN(S(=O)(=O)CCCNC3CCC3)CC2)sc1C(=O)c1c(F)cccc1F` [Example V63] were, in that order, 13% and 78%.
The like results for `Nc1nc(NC2CCN(S(=O)(=O)CCCNCCN3CCOCC3)CC2)sc1C(=O)c1c(F)cccc1F` [Example V10] were, in that order, 3% and 69%.
Regarding `Nc1nc(NC2CCN(S(=O)(=O)CCCN3CCCCCC3)CC2)sc1C(=O)c1c(F)cccc1F` [Example V37], in the test with HCT-116 cell line (HCT-116 cells, compound at 0.175 uM, 0.175 µM), the “% inhibition HCT-116 in MTT @ 0.175 uM” value came to 65%. For the same molecule, at CDK2/Cyclin A (compound at 0.05 μM, 0.05 µM), the “% inhibition of CDK2 (@ 0.05 μM)” value was determined as 85%.
Regarding `Nc1nc(NC2CCN(S(=O)(=O)CCCNCCC3CCCN3)CC2)sc1C(=O)c1c(F)cccc1F` (centres unmarked) [Example V1], the inhibition at 0.175 µM with HCT-116 cell line (compound at 0.175 uM) turned out to be 7%. Besides, the inhibition at 0.05 µM on CDK2/Cyclin A was 80%.
As to `Cc1cccc(CNCCCS(=O)(=O)N2CCC(Nc3nc(N)c(C(=O)c4c(F)cccc4F)s3)CC2)c1` [Example V79], in the test with HCT-116 cell line (compound at 0.175 uM), the inhibition at 0.175 µM was 76%. Also, the inhibition at 0.05 µM at CDK2/Cyclin A stood at 93%.
On the same counts, the results for `Nc1nc(NC2CCN(S(=O)(=O)CCCN3Cc4ccccc4C3)CC2)sc1C(=O)c1c(F)cccc1F` [Example V155] are 11% and 87%.
The like results for `Nc1nc(NC2CCN(S(=O)(=O)CCCN3CCN(CCO)CC3)CC2)sc1C(=O)c1c(F)cccc1F` [Example V34] were, in that order, 16% and 67%.
The like results for `CCCCN(CC#N)CCCS(=O)(=O)N1CCC(Nc2nc(N)c(C(=O)c3c(F)cccc3F)s2)CC1` [Example V119] were, in that order, 0% and 75%.
With `Nc1nc(NC2CCN(S(=O)(=O)CCCN3CCC(CO)CC3)CC2)sc1C(=O)c1c(F)cccc1F` [Example V133], the inhibition at 0.175 µM in the test on HCT-116 cell line (compound at 0.175 uM) came out at 0%. The inhibition at 0.05 µM at CDK2/Cyclin A was 71%.
As to `Nc1nc(NC2CCN(S(=O)(=O)CCCNCC3(O)CCCCC3)CC2)sc1C(=O)c1c(F)cccc1F` [Example V144], the inhibition at 0.175 µM with HCT-116 cell line (compound at 0.175 uM) was found to be 0%. Further, the inhibition at 0.05 µM on CDK2/Cyclin A stood at 87%.
For the molecule `COC1CCN(CCCS(=O)(=O)N2CCC(Nc3nc(N)c(C(=O)c4c(F)cccc4F)s3)CC2)CC1` [Example K59, {4-Amino-2-[(1-{[3-(4-methoxypiperidin-1-yl)propyl]sulfonyl}piperidin-4-yl)amino]-1,3-thiazol-5-yl}(2,6-difluorophenyl)methanone], in the test with HCT-116 cell line, the IC50 is 270 nM. The Ki on CDK2/Cyclin A turned out to be 11 nM.
Regarding `Nc1nc(NC2CCN(S(=O)(=O)CCCN3CCNC(=O)CC3)CC2)sc1C(=O)c1c(F)cccc1F` [Example V156], the inhibition at 0.175 µM in the test on HCT-116 cell line (compound at 0.175 uM) worked out at 0%. The inhibition at 0.05 µM at CDK2/Cyclin A stood at 82%.
On the same counts, the results for `CC1(C)CCCN(CCCS(=O)(=O)N2CCC(Nc3nc(N)c(C(=O)c4c(F)cccc4F)s3)CC2)C1` [Example V46] are 71% and 77%.
On the same counts, the results for `COC(=O)CN(C)CCCS(=O)(=O)N1CCC(Nc2nc(N)c(C(=O)c3c(F)cccc3F)s2)CC1` [Example V136] are 9% and 76%.
With `C[C@@H](NCCC(=O)N1CCC(Nc2nc(N)c(C(=O)c3c(F)cccc3F)s2)CC1)c1ccccc1` [Example U1, Trifluoroacetic Acid Salt], the IC50 in the test with HCT-116 cell line was determined as 910 nM. Also, the Ki at CDK2/Cyclin A amounted to 20.7 nM.
In the case of `CC(C)(C)c1cc(NCCCS(=O)(=O)N2CCC(Nc3nc(N)c(C(=O)c4c(F)cccc4F)s3)CC2)no1` [Example V117], the inhibition at 0.175 µM with HCT-116 cell line (compound at 0.175 uM) was 0%. Further, the inhibition at 0.05 µM on CDK2/Cyclin A turned out to be 80%.
The like results for `CN(CCCS(=O)(=O)N1CCC(Nc2nc(N)c(C(=O)c3c(F)cccc3F)s2)CC1)Cc1ccco1` [Example V82] were, in that order, 60% and 88%.
On the same counts, the results for `Nc1nc(NC2CCN(S(=O)(=O)CCCN3CCCCC3)CC2)sc1C(=O)c1c(F)cccc1F` [Example V55] are 56% and 84%.
On the same counts, the results for `Nc1nc(NC2CCN(S(=O)(=O)CCCNC3CCCCC3)CC2)sc1C(=O)c1c(F)cccc1F` [Example V72] are 14% and 90%.
As to `CC(CN(C)C)NCCCS(=O)(=O)N1CCC(Nc2nc(N)c(C(=O)c3c(F)cccc3F)s2)CC1` (centres unmarked) [Example V126], in the test with HCT-116 cell line (compound at 0.175 uM), the inhibition at 0.175 µM is 6%. In addition, at CDK2/Cyclin A, the inhibition at 0.05 µM was 84%.
On the same counts, the results for `NC(=O)C1CCN(CCCS(=O)(=O)N2CCC(Nc3nc(N)c(C(=O)c4c(F)cccc4F)s3)CC2)CC1` [Example V45] are 25% and 83%.
On the same counts, the results for `Nc1nc(NC2CCN(S(=O)(=O)CCCNCCC3CCOCC3)CC2)sc1C(=O)c1c(F)cccc1F` [Example V164] are 0% and 85%.
Turning to `Nc1nc(NC2CCN(S(=O)(=O)CCCN3CCCCC3CCO)CC2)sc1C(=O)c1c(F)cccc1F` (centres unmarked) [Example V38], the inhibition at 0.175 µM with HCT-116 cell line (compound at 0.175 uM) is 1%. The inhibition at 0.05 µM at CDK2/Cyclin A turned out to be 80%.
The like results for `Nc1nc(NC2CCN(S(=O)(=O)CCCNCC3CCCCC3)CC2)sc1C(=O)c1c(F)cccc1F` [Example V118] were, in that order, 54% and 90%.
On the same counts, the results for `Nc1nc(NC2CCN(S(=O)(=O)CCCNc3ccc4ccccc4n3)CC2)sc1C(=O)c1c(F)cccc1F` [Example V110] are 2% and 67%.
On the same counts, the results for `N#CCCNCCCS(=O)(=O)N1CCC(Nc2nc(N)c(C(=O)c3c(F)cccc3F)s2)CC1` [Example V92] are 9% and 81%.
For `Nc1nc(NC2CCN(S(=O)(=O)CCCNCc3cccc(F)c3)CC2)sc1C(=O)c1c(F)cccc1F` [Example V100], the inhibition at 0.175 µM in the test with HCT-116 cell line (compound at 0.175 uM) turned out to be 88%. The inhibition at 0.05 µM at CDK2/Cyclin A was 91%.
Consider `CN(CCCS(=O)(=O)N1CCC(Nc2nc(N)c(C(=O)c3c(F)cccc3F)s2)CC1)Cc1ccccc1` [Example V13], for which, in the test on HCT-116 cell line (compound at 0.175 uM), the inhibition at 0.175 µM is 79%. Moreover, at CDK2/Cyclin A, the inhibition at 0.05 µM amounted to 90%.
On the same counts, the results for `CCCCNCCCS(=O)(=O)N1CCC(Nc2nc(N)c(C(=O)c3c(F)cccc3F)s2)CC1` [Example V85] are 29% and 82%.
The like results for `CCCN(CCCS(=O)(=O)N1CCC(Nc2nc(N)c(C(=O)c3c(F)cccc3F)s2)CC1)CC1CC1` [Example V61] were, in that order, 65% and 81%.
On the same counts, the results for `NC(=O)C1CCCN(CCCS(=O)(=O)N2CCC(Nc3nc(N)c(C(=O)c4c(F)cccc4F)s3)CC2)C1` (centres unmarked) [Example V16] are 5% and 80%.
For `Nc1nc(NC2CCN(S(=O)(=O)CCCNC3CCOCC3)CC2)sc1C(=O)c1c(F)cccc1F` [Example V153], the inhibition at 0.175 µM with HCT-116 cell line (compound at 0.175 uM) amounted to 0%. Also, the inhibition at 0.05 µM on CDK2/Cyclin A turned out to be 84%.
On the same counts, the results for `CCC(COC)NCCCS(=O)(=O)N1CCC(Nc2nc(N)c(C(=O)c3c(F)cccc3F)s2)CC1` (centres unmarked) [Example V97] are 28% and 81%.
On the same counts, the results for `CCCCC(CO)NCCCS(=O)(=O)N1CCC(Nc2nc(N)c(C(=O)c3c(F)cccc3F)s2)CC1` (centres unmarked) [Example V120] are 6% and 89%.
With `COC1CCN(CCCS(=O)(=O)N2CCC(Nc3nc(N)c(C(=O)c4c(F)cccc4F)s3)CC2)CC1` [Example V171], the inhibition at 0.175 µM with HCT-116 cell line (compound at 0.175 uM) turned out to be 65%. The inhibition at 0.05 µM on CDK2/Cyclin A is 81%.
For `Nc1nc(NC2CCN(S(=O)(=O)CCCNc3ccccn3)CC2)sc1C(=O)c1c(F)cccc1F` [Example K56, (4-Amino-2-{1-[3-(pyridin-2-ylamino)-propane-1-sulfonyl]-piperidin-4-ylamino}-thiazol-5-yl)-(2,6-difluoro-phenyl)-methanone. Trifluoroacetic Acid Salt], in the test on HCT-116 cell line, the IC50 came out at 2640 nM. At CDK2/Cyclin A, the Ki is 8 nM.
With `Nc1nc(NC2CCN(S(=O)(=O)CCCNCc3ccc(F)cc3)CC2)sc1C(=O)c1c(F)cccc1F` [Example V52], the inhibition at 0.175 µM with HCT-116 cell line (compound at 0.175 uM) worked out at 65%. In addition, the inhibition at 0.05 µM on CDK2/Cyclin A came to 92%.
The like results for `CCN(CCCS(=O)(=O)N1CCC(Nc2nc(N)c(C(=O)c3c(F)cccc3F)s2)CC1)CCOC` [Example V130] were, in that order, 36% and 75%.
The like results for `Nc1nc(NC2CCN(S(=O)(=O)CCCN3CCCC(CO)C3)CC2)sc1C(=O)c1c(F)cccc1F` (centres unmarked) [Example V36] were, in that order, 8% and 50%.
On the same counts, the results for `Nc1nc(NC2CCN(S(=O)(=O)CCCN3CCSC3)CC2)sc1C(=O)c1c(F)cccc1F` [Example V101] are 22% and 80%.
In the case of `CCOC(=O)CCNCCCS(=O)(=O)N1CCC(Nc2nc(N)c(C(=O)c3c(F)cccc3F)s2)CC1` [Example V132], the inhibition at 0.175 µM in the test with HCT-116 cell line (compound at 0.175 uM) is 20%. For the same molecule, on CDK2/Cyclin A, the inhibition at 0.05 µM came to 80%.
